Experimental data as given in article PMC7911516, “Investigation of the Factors Responsible for the Poor Oral Bioavailability of Acacetin in Rats: Physicochemical and Biopharmaceutical Aspects” (Pharmaceutics, 2021).
Like-named read-outs stand apart in the source and are kept apart here.

Legend:
[1] = Distribution coefficients in octanol–water system; format: physicochemical; details: 25 °C
Procedure: Simulated gastric fluid (SGF) consisted of 0.2% (w/v) sodium chloride, 0.32% (w/v) pepsin, and 0.7% (v/v) HCl (final pH = 1.2). Simulated intestinal fluid (SIF) was prepared by dissolving 3 mM sodium taurocholate and 0.1% (w/v) pancreatin in phosphate buffer (final pH = 7.0). The solubility of acacetin was measured by adding excessive amounts of acacetin into glass vials containing 1.5 mL of water, pH 7.4 phosphate buffer, SGF, and SIF. The mixtures were allowed to reach equilibrium in a shaking incubator (FINEPCR, Gyeonggi-do, South Korea) at 500 rpm at 37 °C for 48 h. The samples were centrifuged at 16,000× g for 5 min, and the supernatant was passed through a 0.20-μm syringe filter to remove excess acacetin. Further, the concentration of acacetin in the filtrate was determined using the LC-MS/MS method. The distribution coefficients of acacetin in water (log P) and pH 7.4 phosphate buffer (log D7.4) were determined using an octanol–water system at 25 ± 0.5 °C. […] Finally, the acacetin concentrations in the octanol and water layers were determined using the LC-MS/MS method. The membrane permeability of acacetin and reference compounds (verapamil as a reference for high permeability and ranitidine as a reference for low permeability) was assessed by parallel artificial membrane permeability assay (PAMPA). […] The permeability was calculated using pION PAMPA Explorer ver. […]

[2] = Oral pharmacokinetic study in rats; format: in vivo
Procedure: The rats were fasted overnight before the experiment and anesthetized using an intramuscular injection of zoletil at 20 mg/kg. The femoral artery and vein were cannulated with a polyethylene tube (Clay Adams, Parsippany, NJ, USA). Acacetin (dissolved in a vehicle composed of DMSO, ethanol, and PEG400 (10:5:85, v/v/v)) was administered intravenously (10 mg/kg) or orally (100 mg/kg) to rats. Approximately 250 μL of blood was collected via the femoral artery at 0, 2, 5, 15, 30, 45, 60, 120, and 180 min after intravenous administration and at 0, 2, 5, 15, 30, 45, 60, 90, 120, and 180 min after oral administration. The cannula was flushed with heparin (20 IU/mL in saline) at each time point to prevent blood clotting. Following centrifugation of the blood sample at 8000× g and 4 °C for 2 min, 120 μL of plasma was obtained. Urine was collected at 1-h intervals in an ice-cold container over 24 h. After urine collection at 24 h, each rat was sacrificed by cervical dislocation; the entire GI tract (including its contents and feces) was excised, transferred into a beaker containing 100 mL methanol, and cut into small pieces using scissors. After manual stirring with a glass rod for 1 min, a 50-μL aliquot of the supernatant was collected. The plasma, urine (Ae24h), and GI tract (GI24h) samples were stored at −80 °C until further LC-MS/MS analysis.
A noncompartmental analysis (WinNonlin ver. 3.1; Certara USA Inc., Princeton, NJ, USA) was performed to determine the following pharmacokinetic parameters: the AUCinf, area under plasma concentration versus time curve from time zero to the last sampling time (AUClast), t1/2, total body clearance (CL), apparent volume of distribution at steady state (Vss), and absolute oral bioavailability (F). The Cmax and time to reach Cmax (Tmax) were directly obtained from the plasma concentration versus time data.

[3] = Michaelis–Menten metabolic kinetics in RLM with NADPH and UDPGA; format: in vitro ADME, rat; details: NADPH and UDPGA/alamethicin
Procedure: To investigate hepatic phase I enzymes- and UGT-dependent metabolism of acacetin, the disappearance rate of acacetin at concentrations of 1–200 µM in RLM was measured in the presence of both NADPH and UDPGA. The substrate (acacetin) concentration ((S); µM) versus the initial metabolic rate (V; nmol/min/mg protein) profiles were interpreted based on Michaelis–Menten kinetics, and relevant parameters were estimated via nonlinear regression analysis (GraphPad Prism ver. 5.01; GraphPad Software, San Diego, CA, USA) using the following Michaelis–Menten equation: V = Vmax× [S]/Km× [S] where Km and Vmax are the Michaelis–Menten constant and maximal metabolic rate, respectively. The unbound intrinsic metabolic clearance (CLint) was calculated as Vmax/(Km × fuMIC). Furthermore, the disappearance of acacetin (20 μM) in the absence or presence of specific CYP isoform-selective inhibitors in RLM was determined to study the hepatic CYP-mediated metabolism of acacetin. Microsomal incubation mixtures (total volume of 200 μL) were prepared as follows: RLM (0.5 mg/mL microsomal protein), 1 mM NADPH, 10 mM MgCl2, 50 mM potassium phosphate buffer, acacetin, with or without CYP isoform-selective inhibitors (10 μM NF for rat CYP1A, 10-μM SPZ for rat CYP2C, 10-μM QND for rat CYP2D, and 10-μM KCZ for rat CYP3A). At 0 and 5 min after initiating the metabolic reaction, a 100-μL aliquot of the incubation mixture was taken, transferred into a clean 1.5 mL microcentrifuge tube containing 100 μL cold acetonitrile to terminate the metabolic reaction, and finally treated in the same manner as described for the tissue S9 fraction samples.

[4] = parameters: method as in PMID 25456423; details: oral, 1.4–1.676 mg/kg in rats; cited from earlier work

- logD ([1]; n-octanol/pH 7.4 phosphate buffer, pH 7.4, n-octanol/pH 7.4 phosphate buffer, read-out: Log D7.4): > 3
- logP ([1]; octanol/water, n-octanol/water): > 3
- GI24h ([2]; PO 100 mg/kg, GI tract at 24 h): 29.3 ± 22.3 % of dose
- Ae24h ([2]; PO 100 mg/kg, urine 24 h): 0.0601 ± 0.0634 % of dose
- AUC(0-t) ([2]; rat, plasma, PO 100 mg/kg): 12.9 ng·h/mL
- Cmax ([2]; rat, plasma, PO 100 mg/kg): 52.1 ± 50.5 ng/mL
- Tmax ([2]; rat, plasma, PO 100 mg/kg, median (range)): 5 min
- bioavailability ([2]; rat, urine, PO 100 mg/kg vs IV 10 mg/kg, from dose-normalized urinary excretion, read-out: F (absolute oral bioavailability)): 2.34%
- Km ([3]; 1–200 µM): 187 ± 14 µM
- microsomal CLint ([3]; Sprague-Dawley, rat, liver microsomes (RLM)): 508 ± 9 µL/min/mg
Structure (SMILES): COc1ccc(-c2cc(=O)c3c(O)cc(O)cc3o2)cc1 [acacetin, Acacetin]
- Vmax [3]: 95.0 ± 5.6 nmol/min/mg protein
- Cmax [4]: 19.02 ng/mL
